Measured values from US5461034A, “Osteogenic growth polypeptides identified from regenerating bone marrow” (Yissum Research Development Company of the Hebrew …, priority 1993, dated 1995).

Test system: ROS 17/2 cells
Test: Anti-PDGF antibody neutralization in ROS 17/2 cells
Format: cell-based, rat
Conditions: intermediate doses of HBMCM preparations
Description: Anti-PDGF antibody neutralization experiments were carried out with polyclonal antiserum prepared in rabbits against PDGF. PDGF or HBMCM-derived preparations were added to ROS 17/2 cells in the presence or absence of antibody and examined for effects on [^3 H]TdR incorporation.

## PDGF
  effect of polyclonal anti-PDGF antibodies on mitogenic effect: inhibited PDGF-stimulated replication
